Data published in PubChem BioAssay AID608 (Sanford-Burnham Center for Chemical Genomics, 2007).
Where “and” joins values, the source holds several entries; their conditions need not be identical. Equal entries are not always repeated. Calls of active or inactive are those of the source. No rule for the calls is given here.

Target: Peptidyl-prolyl cis-trans isomerase FKBP1A (Homo sapiens) (UniProt P62942)
Test: small-molecule binding to FKBP12 – biophysical, NMR detection (AID 608)
Details: purified FKBP12

Chain of Peptidyl-prolyl cis-trans isomerase FKBP1A (Homo sapiens) (P62942 whole entry, looked up): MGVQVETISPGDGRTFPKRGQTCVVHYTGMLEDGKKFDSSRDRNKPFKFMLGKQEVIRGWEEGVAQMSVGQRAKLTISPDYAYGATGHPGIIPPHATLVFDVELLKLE

SMILES	Kd
CC1=C(C(N)=O)C(c2cccs2)C(C(N)=O)=C(C)N1	> 4 mM (inactive)
COc1cc(O)c2c(=O)cc(-c3ccc(OC)c(-c4c(O)cc(O)c5c(=O)cc(-c6ccc(O)cc6)oc45)c3)oc2c1	> 4 mM (inactive)
O=C(Nc1ccc2c(c1)OCO2)c1cccc(F)c1	> 4 mM (inactive)
CCSc1nnc(-c2ccccc2N)c(=O)[nH]1	> 4 mM (inactive)
CC1=CCCC2C1(C)CCC(C)C2(C)CC/C(C)=C/C[n+]1cn(C)c2c(N)ncnc21 (stereo not drawn)	> 4 mM (inactive)
O=C(O)CCC(=O)NCc1cccnc1	> 4 mM (inactive)
CSc1n[nH]c(NCc2cccs2)n1	> 4 mM (inactive)
O=C(Nc1cccnc1)N1CCOCC1	> 4 mM (inactive)
CSc1nnc(CN2CCSCC2)n1C	> 4 mM (inactive)
C=C(C)C1Cc2c(ccc(C(=O)O)c2O)O1 (stereo not drawn)	> 4 mM (inactive)
c1ccc2[nH]c(-c3cscn3)nc2c1	0.111 mM and 0.056 mM
CSc1ccc(/C=c2\sc3ncnn3c2=O)cc1	> 4 mM (inactive)
CC1(C)Oc2ccc3ccc(=O)oc3c2CC1O (stereo not drawn)	> 4 mM (inactive)
O=C(O)CS(=O)(=O)c1ccccc1[N+](=O)[O-]	> 4 mM (inactive)
Cc1cc(C)n2nc(C(=O)NCc3ccco3)nc2n1	> 4 mM (inactive)
Nc1cc(=O)[nH]c(=S)n1CCc1ccccc1	> 4 mM (inactive)
COc1ccc2nc(N)sc2n1	> 4 mM (inactive)
Cc1cc(O)c(NC(=O)c2ccco2)cc1C	> 4 mM (inactive)
Cc1cccn2cc(CNc3ccccc3)nc12	> 4 mM (inactive)
CCC(=O)n1nc(-c2ccco2)nc1N	> 4 mM (inactive)
O=C(c1ccncc1)N1CCN(C(=O)c2ccncc2)CC1	> 4 mM (inactive)
CC(=O)CNc1cc(CNC(C)=O)c(C)cc1C	> 4 mM (inactive)
COc1cccc(-c2cc(=O)c3cc(OC)ccc3o2)c1	> 4 mM (inactive)
S=C1NC(=S)NC(c2ccc3c(c2)OCO3)N1	> 4 mM (inactive)

SMILES	Kd
O=c1nc(NCc2ccco2)sc2ncccc12	> 4 mM (inactive)
O=C(/C=C/c1ccccc1)c1ccc(O[C@@H]2O[C@H](CO)[C@@H](O)[C@H](O)[C@H]2O)cc1O	> 4 mM (inactive)
NC(=O)CSc1nc2ccccc2o1	> 4 mM (inactive)
Cc1cc(C)c(C)c(OCC(=O)N2CCOCC2)c1	inactive
C=CC(C)(O)CC/C=C(\C)CCC=C(C)C (stereo not drawn)	> 4 mM (inactive)
NC(=O)CSc1ccc2nnc(-c3cccs3)n2n1	> 4 mM (inactive)
O=C(O)C1COc2ccccc2O1 (stereo not drawn)	> 4 mM (inactive)
O=C1CC2OCC=C3CN4CC[C@]56c7ccccc7N1C5[C@H]2[C@H]3CC46 (stereo partly drawn)	> 4 mM (inactive)
Cc1nc2ccc(NC(=O)N3CCSCC3)cc2s1	> 4 mM (inactive)
CC(C1OC(C)(C)C(O)C1O)[C@@H]1CC[C@]2(C)C3=CCC4C(C)(C)C(=O)CC[C@]4(C)C3CC[C@@]12C (stereo partly drawn)	> 4 mM (inactive)
CC1(C)Cc2c(c(-c3ccco3)[nH]c(=O)c2C#N)CO1	> 4 mM (inactive)
Cn1cnnc1SCC(=O)Nc1ccccc1	> 4 mM (inactive)
CCc1ccccc1OCC(=O)N1CCOCC1	> 4 mM (inactive)
CC(=O)Nc1cccc(-c2nnc3n2CC(C)S3)c1 (stereo not drawn)	> 4 mM (inactive)
Fc1ccc(Cn2c(-c3cscn3)nc3ccccc32)c(Cl)c1	inactive
O=C(CS(=O)(=O)c1ccccc1)Nc1nccs1	> 4 mM (inactive)
CC1=C(CCC(=O)O)c2cc3nc(cc4[nH]c(cc5[nH]c(cc1n2)c(C)c5C(C)O)c(C)c4C(C)O)C(C)=C3CCC(=O)O (stereo not drawn)	> 4 mM (inactive)
O=C(O)CCS(=O)(=O)c1ccccc1	> 4 mM (inactive)
CC(=O)c1cc(-c2nc3ccccc3n2C)n(C)c1	> 4 mM (inactive)
O=C(O)CNC(=O)c1ccccc1	> 4 mM (inactive)
C=C1CCC(C2CC(=O)OC2=O)C(=O)CCC2C1CC2(C)C (stereo not drawn)	> 4 mM (inactive)
Cc1n[nH]c(=O)c2ncn(C)c12	> 4 mM (inactive)
O=C1CC(=O)N2N=C(c3ccccc3)SC2=N1	> 4 mM (inactive)
N#CCN1C(=O)c2ccccc2S1(=O)=O	> 4 mM (inactive)

SMILES	Kd
CC1(C)CC2(CCO1)NCCN1C(=O)CSC12 (stereo not drawn)	> 4 mM (inactive)
O=C(O)CNS(=O)(=O)c1cccs1	> 4 mM (inactive)
NC(=O)CN1CC(c2ccccc2)CC1=O (stereo not drawn)	> 4 mM (inactive)
CCOc1ccc(C(=O)c2ccc(O)c(O)c2O)cc1	> 4 mM (inactive)
CC(=O)Nc1ccc(N(C)C(C)=O)cc1	> 4 mM (inactive)
CC1=CCc2c(cc3oc(C)cc(=O)c3c2O)OC1	> 4 mM (inactive)
NC(=O)CSCc1ccc(Br)cc1	> 4 mM (inactive)
O=C(Nc1nnc(-c2ccccc2Cl)o1)c1ccco1	> 4 mM (inactive)
O=C1c2ccccc2-c2ncnc3cccc1c23	> 4 mM (inactive)
Oc1cc(O)c2c(c1)O[C@H](c1ccc(O)c(O)c1)[C@@H](O)C2	> 4 mM (inactive)
S=c1nc(Cc2ccccc2)[nH][nH]1	> 4 mM (inactive)
O=C1c2ccccc2C(=O)N1/N=C/c1ccc[nH]1	> 4 mM (inactive)
COc1cc(/C=C2/NC(=S)NC2=O)cc(Cl)c1O	> 4 mM (inactive)
NC1=NN(c2ccccc2)C(=O)C1	> 4 mM (inactive)
O=C1CSC(=Nc2ccccc2[N+](=O)[O-])N1	> 4 mM (inactive)
Cc1nc(-c2cccc(-c3noc(C)n3)c2)no1	> 4 mM (inactive)
COc1cc2c(cc1OC)-c1nnnn1C(C)(C)C2	> 4 mM (inactive)
CN1CCN(Cc2cccnc2)CC1	> 4 mM (inactive)
O=C(O)/C=C1\NC(=O)c2ccccc21	> 4 mM (inactive)
CC(=O)Nc1ccc(C)cc1NC(C)=O	> 4 mM (inactive)
O=C(O)C1Cc2ccccc2O1 (stereo not drawn)	> 4 mM (inactive)
Cc1ccc(SCc2cc(=O)n3[nH]c(C)nc3n2)cc1	> 4 mM (inactive)
C(=C\c1ccccc1)/C=N/n1cnnc1	> 4 mM (inactive)
Nc1ccc(-c2cnco2)cc1	> 4 mM (inactive)

SMILES	Kd
O=c1[nH]nc(Cc2ccccn2)c2ccccc12	> 4 mM (inactive)
O=S1(=O)C=CC(N2CCCCC2)C1 (stereo not drawn)	> 4 mM (inactive)
Cc1ccc(-c2cc(C(=O)N3CCCC3)no2)cc1	> 4 mM (inactive)
O=C1CCC(=O)N1c1ccc(F)cc1	> 4 mM (inactive)
CCCS(=O)(=O)N1CCN(c2ccccc2F)CC1	> 4 mM (inactive)
O=C1C2CCCCC2C(=O)N1c1nccs1 (stereo not drawn)	> 4 mM (inactive)
CC(=O)NC(=S)Nc1ccc(S(N)(=O)=O)cc1	> 4 mM (inactive)
S=c1[nH]ncn1-c1ccccc1	> 4 mM (inactive)
Cc1nnc(NCCO)[nH]c1=O	> 4 mM (inactive)
Nc1nc(N)nc(N2C(=O)c3ccccc3C2=O)n1	> 4 mM (inactive)
Cc1nc2cc(Cl)ccc2n1CCO	> 4 mM (inactive)
CC(=O)O[C@H]1C[C@@H](OC(C)=O)C(C)(C)C2CC(=O)[C@]3(C)C(CC[C@@]4(C)[C@H](c5ccoc5)OC(=O)[C@H]5O[C@]543)[C@]21C (stereo partly drawn)	> 4 mM (inactive)
NCc1ccc(N2CCOCC2)cc1	> 4 mM (inactive)
Cc1cc(=O)n2nc(-c3ccccc3)sc2n1	> 4 mM (inactive)
COC(=O)c1cc2ccccc2cn1	> 4 mM (inactive)
C=C[C@@](C)(O)CCC1C(=C)C[C@H](O)C2C(C)(C)CCCC12C (stereo partly drawn)	> 4 mM (inactive)
COC(=O)c1noc(C)c1C(C)=O	> 4 mM (inactive)
NCc1ccc(CN2CCOCC2)cc1	> 4 mM (inactive)
CNC(=O)C1CC(=O)N(c2ccc(O)cc2)C1 (stereo not drawn)	> 4 mM (inactive)
[O-][n+]1cc(O)c(CN2CCOCC2)c2ccccc21	> 4 mM (inactive)
C=Cc1c(C)c2cc3[nH]c(cc4nc(cc5nc(cc1[nH]2)C(C)=C5CCC(=O)O)C(CCC(=O)O)=C4C)c(C)c3C=C	> 4 mM (inactive)
Cc1nc2c(=O)[nH]c3ccccc3c2o1	> 4 mM (inactive)
CCOC(=O)C(C)c1n[nH]c(=O)c2ccccc12 (stereo not drawn)	> 4 mM (inactive)
Cc1cc(C(=O)NCc2cccnc2)no1	> 4 mM (inactive)

SMILES	Kd
CN(C)C(=O)N1CCN(C(=O)c2ccco2)CC1	> 4 mM (inactive)
Cc1nc2c(n1O)CCc1c-2no[n+]1[O-]	> 4 mM (inactive)
FC(F)(F)c1cccc(Cn2c(-c3cscn3)nc3ccccc32)c1	inactive
CC1(C)CC2C1CCC1(C)OC1CCC2(C)O (stereo not drawn)	> 4 mM (inactive)
COc1cc(C)nc(N(CCO)CCO)n1	> 4 mM (inactive)
Nc1cc(=O)[nH]c(=O)n1-c1ccccc1	> 4 mM (inactive)
COc1cc2c(cc1O)[C@@H](Cc1ccc(O)cc1)[N+](C)(C)CC2	> 4 mM (inactive)
O=C(O)CCCCCCCCCCCCC1C=CCC1 (stereo not drawn)	> 4 mM (inactive)
O=C(/C(=N\O)n1cncn1)c1ccccc1Cl	> 4 mM (inactive)
CN1C2CC(OC(=O)[C@H](CO)c3ccccc3)C[C@H]1[C@H]1OC21 (stereo partly drawn)	> 4 mM (inactive)
COc1ccc([C@H]2Oc3c(I)c(OC)cc(OC)c3C[C@@H]2O)cc1OC	> 4 mM (inactive)
Nc1cc(=O)[nH]c(=O)n1Cc1ccco1	> 4 mM (inactive)
N#Cc1c(N)c(C(=O)c2ccccc2)n2c1CCC2	> 4 mM (inactive)
Cc1ccc(CCC(N)=O)o1	> 4 mM (inactive)
CC1CC[C@]2(NC1)O[C@H]1CC3C4CC[C@H]5C[C@@H](O)CC[C@]5(C)C4CC[C@]3(C)[C@H]1[C@@H]2C (stereo partly drawn)	> 4 mM (inactive)
CC(C)CC(=O)Nc1c[nH]c(=O)[nH]c1=O	> 4 mM (inactive)
CC(=O)Nc1ccc(Oc2nc(C)cc(C)n2)cc1	> 4 mM (inactive)
CCCSc1nnc2[nH]c(=O)cc(N)n12	> 4 mM (inactive)
Cc1csc2nc3ccccc3c(=O)n12	> 4 mM (inactive)
COC(=O)Cn1c2ccccc2c2nc(C)sc21	> 4 mM (inactive)
Oc1cccc(N2CCOCC2)c1	> 4 mM (inactive)
Cc1nnc(SCC(=O)NC2CCCC2)[nH]c1=O	> 4 mM (inactive)
